Results reported in the NIST ThermoML archive (doi:10.1021/je060249h).
Where “and” joins values, the source holds several entries; their conditions need not be identical. Equal entries are not always repeated.

Details: Liquid

Clc1ccccc1 [chlorobenzene]
Details	vapor or sublimation pressure [kPa]
330.5 K	7.92
337.4 K	10.59

ClCc1nc2ccccc2o1 [2-(chloromethyl)-1,3-benzoxazole]
Ebulliometric method (Recirculating still)
Details	vapor or sublimation pressure
347.65 K	0.08 kPa
357.1 K	0.16 kPa
368.45 K	0.32 kPa
375.15 K	0.59 kPa
378.2 K	0.69 kPa
383.2 K	0.96 kPa
388.15 K	1.39 kPa
393.5 K	1.76 kPa
393.85 K	1.87 kPa
395.6 K	2.03 kPa
400.3 K	2.72 kPa
405.25 K	3.28 kPa
408.35 K	4.19 kPa
411.9 K	4.88 kPa
417.3 K	6.32 kPa
418.1 K	7.29 kPa
418.85 K	7.91 kPa
418.9 K	7.92 kPa
422.05 K	9.41 kPa
423.2 K	9.92 kPa and 10.59 kPa
424.2 K	10.53 kPa
424.55 K	10.8 kPa
